{"source": "patent US20090246292A1", "about": "“ANTIMICROBIAL FORMULATIONS COMPRISING A QUINONE AND A COPPER SALT” (priority 2006, published 2009);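 on SL (S)DDA: paper disc carrying compound placed on inoculated Wilkins-Chalgren Anaerobe agar pH 6.0, with lipid or NaCl supplement where listed, anaerobic 37 °C for 72 h, inhibition zone diameter read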", "key": {"[1]": {"system": "panel of different propionibacterium strains", "assay": "MIC by agar dilution and (S)DDA, whole panel", "type": "cell-based, Propionibacterium spp", "conditions": "compound alone; also under supplemented conditions", "description": "For (S)DDA experiments 200 μg of each test compound was added per disc. […] MIC experiments were performed in duplicate, DDA experiments as single replicates only. SDDA experiments were conducted in triplicate.\nThe activity of the salt (MIC by agar dilution and DDA) was also determined against a panel of different propionibacterium strains. Supplemented DDA experiments were also carried out. […] DMSO was used as the diluting solvent. MIC experiments were performed in duplicate and DDA experiments as single replicates only."}, "[2]": {"system": "Staphylococcus haemolyticus ATCC 29970", "conditions": "triplicate", "description": "(§6) The staphylococci were cultured and maintained on Mueller-Hinton Medium (agar and broth) at pH 7.2; cultures were incubated aerobically at 37° C. for 19-20 hours.\nThis is a standard international method for quantitatively assessing the antimicrobial activity of a compound in a liquid medium. The method used a sterile 96-well microtitre plate, capable of holding about 200 μl of liquid per well. […] The culture media were as described above.\nThe wells were inoculated with a liquid suspension of freshly grown micro-organism and incubated under the conditions described above. After incubation, the microtitre plate was examined visually (with the aid of a light box) for cloudiness in each well, which would indicate microbial growth. The MIC value was recorded as the lowest concentration of test compound required to inhibit microbial growth, ie, the lowest concentration for which the liquid in the well remained clear."}, "[3]": {"system": "panel of different staphylococcal strains", "conditions": "compound alone; also under supplemented conditions", "description": "The activity of the salt was also determined against a panel of different staphylococcal strains, including some with known antibiotic resistance. MIC, MBC and DDA assays were carried out as described above for each of the strains, including determining the effect of the presence of salt and serum.\nFor DDA experiments 200 μg of the test compound was added per disc. DMSO was used as the diluting solvent. All experiments were performed in triplicate."}, "[4]": {"system": "P. acnes NCTC 737", "assay": "Minimum inhibitory concentration (MIC) assay", "type": "cell-based, Propionibacterium acnes", "conditions": "P. acnes NCTC 737", "excerpt": "(§1) (a) Minimum Inhibitory Concentration (MIC) Assay\n(§2) The culture media were as described above.\n(§3) The assays included both negative (culture medium with no micro-organisms) and positive (culture medium plus diluting solvent plus micro-organism) controls."}, "[5]": {"system": "P. acnes NCTC 737", "assay": "Minimum bactericidal concentration (MBC) assay", "type": "cell-based, Propionibacterium acnes", "conditions": "Cutibacterium acnes, NCTC737; P. acnes NCTC 737; duplicate; read-out: MBC", "procedure": "(§4) (b) Minimum Bactericidal Concentration (MBC) Assay\n(§5) Following incubation they were examined visually for bacterial growth."}, "[6]": {"system": "S. aureus ATCC 29213", "assay": "Minimum inhibitory concentration (MIC) assay", "type": "cell-based, Staphylococcus aureus", "conditions": "S. aureus ATCC 29213", "excerpt": "as §1, §2, §3"}, "[7]": {"system": "S. aureus ATCC 29213", "assay": "Minimum bactericidal concentration (MBC) assay", "type": "cell-based, Staphylococcus aureus", "conditions": "Staphylococcus aureus, ATCC29213; S. aureus ATCC 29213; duplicate; read-out: MBC", "procedure": "as §4, §5"}, "[8]": {"system": "P. granulosum NCTC 11865", "assay": "Disc diffusion assay (DDA), also supplemented", "type": "cell-based", "conditions": "Table 12 series, 200 μg per disc", "description": "(§7) The propionibacteria were cultured and maintained on Wilkins-Chalgren Anaerobe Medium (agar and broth) at pH 6.0; all cultures were incubated anaerobically at 37° C. for 72 hours.\n(§8) A sterile paper disc was impregnated with a sample of the test compound in a suitable solvent and 30 minutes allowed for the solvents to evaporate (where possible). The disc was then placed on an agar plate onto which the test micro-organism had been inoculated. The plate was then incubated under the conditions described above, following which it was examined visually for signs of bacterial growth. […] The diameter of this zone of “inhibition” was measured using a ProtoCOL™ automated zone sizer (Synbiosis, Cambridge, UK).\n(§9) For assays using Propionibacterium spp. strains the supplements used in the examples below were lipid (either Tween™ 80 or triolein, both at 1% v/v) and sodium chloride (100 mM)."}, "[9]": {"system": "P. acnes PRP-002", "assay": "Disc diffusion assay (DDA), also supplemented", "type": "cell-based, Propionibacterium acnes", "conditions": "Table 12 series, 200 μg per disc", "description": "as §7, §8, §9"}, "[10]": {"system": "P. acnes PRP-003", "assay": "Disc diffusion assay (DDA), also supplemented", "type": "cell-based, Propionibacterium acnes", "conditions": "Table 12 series, 200 μg per disc", "description": "as §7, §8, §9"}, "[11]": {"system": "P. acnes PRP-004", "assay": "Disc diffusion assay (DDA), also supplemented", "type": "cell-based, Propionibacterium acnes", "conditions": "Table 12 series, 200 μg per disc", "description": "as §7, §8, §9"}, "[12]": {"system": "P. granulosum PRP-005", "assay": "Disc diffusion assay (DDA), also supplemented", "type": "cell-based", "conditions": "Table 12 series, 200 μg per disc", "description": "as §7, §8, §9"}, "[13]": {"system": "P. granulosum PRP-006", "assay": "Disc diffusion assay (DDA), also supplemented", "type": "cell-based", "conditions": "Table 12 series, 200 μg per disc", "description": "as §7, §8, §9"}, "[14]": {"system": "P. acnes PRP-007", "assay": "Disc diffusion assay (DDA), also supplemented", "type": "cell-based, Propionibacterium acnes", "conditions": "Table 12 series, 200 μg per disc", "description": "as §7, §8, §9"}, "[15]": {"system": "P. acnes PRP-008", "assay": "Disc diffusion assay (DDA), also supplemented", "type": "cell-based, Propionibacterium acnes", "conditions": "Table 12 series, 200 μg per disc", "description": "as §7, §8, §9"}, "[16]": {"system": "P. acnes PRP-010", "assay": "Disc diffusion assay (DDA), also supplemented", "type": "cell-based, Propionibacterium acnes", "conditions": "Table 12 series, 200 μg per disc", "description": "as §7, §8, §9"}, "[17]": {"system": "P. acnes PRP-017", "assay": "Disc diffusion assay (DDA), also supplemented", "type": "cell-based, Propionibacterium acnes", "conditions": "Table 12 series, 200 μg per disc"}, "[18]": {"system": "P. granulosum PRP-019", "assay": "Disc diffusion assay (DDA), also supplemented", "type": "cell-based", "conditions": "Table 12 series, 200 μg per disc", "description": "as §7, §8, §9"}, "[19]": {"system": "P. granulosum PRP-021", "assay": "Disc diffusion assay (DDA), also supplemented", "type": "cell-based", "conditions": "Table 12 series, 200 μg per disc", "description": "as §7, §8, §9"}, "[20]": {"system": "P. acnes PRP-023", "assay": "Disc diffusion assay (DDA), also supplemented", "type": "cell-based, Propionibacterium acnes", "conditions": "Table 12 series, 200 μg per disc", "description": "as §7, §8, §9"}, "[21]": {"system": "P. acnes PRP-026", "assay": "Disc diffusion assay (DDA), also supplemented", "type": "cell-based, Propionibacterium acnes", "conditions": "Table 12 series, 200 μg per disc", "description": "as §7, §8, §9"}, "[22]": {"system": "P. acnes PRP-039", "assay": "Disc diffusion assay (DDA), also supplemented", "type": "cell-based, Propionibacterium acnes", "conditions": "Table 12 series, 200 μg per disc"}, "[23]": {"system": "P. granulosum PRP-043", "assay": "Disc diffusion assay (DDA), also supplemented", "type": "cell-based", "conditions": "Table 12 series, 200 μg per disc", "description": "as §7, §8, §9"}, "[24]": {"system": "P. granulosum PRP-044", "assay": "Disc diffusion assay (DDA), also supplemented", "type": "cell-based", "conditions": "Table 12 series, 200 μg per disc", "description": "as §7, §8, §9"}, "[25]": {"system": "P. acnes PRP-046", "assay": "Disc diffusion assay (DDA), also supplemented", "type": "cell-based, Propionibacterium acnes", "conditions": "Table 12 series, 200 μg per disc"}, "[26]": {"system": "P. acnes PRP-053", "assay": "Disc diffusion assay (DDA), also supplemented", "type": "cell-based, Propionibacterium acnes", "conditions": "Table 12 series, 200 μg per disc", "description": "as §7, §8, §9"}, "[27]": {"system": "P. granulosum PRP-055", "assay": "Disc diffusion assay (DDA), also supplemented", "type": "cell-based", "conditions": "Table 12 series, 200 μg per disc", "description": "as §7, §8, §9"}, "[28]": {"system": "P. acnes PRP-059", "assay": "Disc diffusion assay (DDA), also supplemented", "type": "cell-based, Propionibacterium acnes", "conditions": "Table 12 series, 200 μg per disc", "description": "as §7, §8, §9"}, "[29]": {"system": "P. acnes PRP-068", "assay": "Disc diffusion assay (DDA), also supplemented", "type": "cell-based, Propionibacterium acnes", "conditions": "Table 12 series, 200 μg per disc", "description": "as §7, §8, §9"}, "[30]": {"system": "P. acnes PRP-101", "assay": "Disc diffusion assay (DDA), also supplemented", "type": "cell-based, Propionibacterium acnes", "conditions": "Table 12 series, 200 μg per disc", "description": "as §7, §8, §9"}, "[31]": {"system": "P. acnes PRP-102", "assay": "Disc diffusion assay (DDA), also supplemented", "type": "cell-based, Propionibacterium acnes", "conditions": "Table 12 series, 200 μg per disc", "description": "as §7, §8, §9"}, "[32]": {"system": "P. acnes NCTC 737", "assay": "Disc diffusion assay (DDA), also supplemented", "conditions": "single compound, 200 μg per disc"}, "[33]": {"system": "S. aureus ATCC 29213", "assay": "Disc diffusion assay (DDA), also supplemented", "conditions": "single compound, 200 μg per disc", "description": "as §6\n(d) Disc Diffusion Assay (DDA)\nas §8\n(f) Supplemented Disc Diffusion Assays\nFor assays using S. aureus ATCC 29213 the supplements used were sodium chloride (100 mM), lipid (Tween™ 80 at 1% v/v) and horse serum (5% v/v)."}, "[34]": {"conditions": "zone of inhibition diameter, unsupplemented"}}, "data": [{"smiles": "Oc1cccc2cccnc12.[Cu+2]", "note": "[8-hydroxyquinoline copper (II) salt]", "values": [{"measurement": "activity against propionibacterium strains tested (in words)", "setting": "[1]", "result": "high activity"}, {"measurement": "Cu-8HQ MIC", "setting": "[2]", "result": 7.8, "unit": "µg/mL"}, {"measurement": "activity against staphylococcal strains (in words)", "setting": "[3]", "result": "high activity"}]}, {"smiles": "CC(C)(C)c1cc(O)ccc1O", "note": "[TBHQ, t-butylhydroquinone]", "values": [{"measurement": "MIC", "setting": "[4]; Cutibacterium acnes, NCTC737, liquid medium, duplicate, read-out: MIC", "result": 7.8, "unit": "µg/mL"}, {"measurement": "MIC/MBC ratio", "setting": "[4]", "result": 1}, {"measurement": "MBC", "setting": "[5]", "result": 7.8, "unit": "µg/mL"}, {"measurement": "MIC/MBC ratio", "setting": "[6]", "result": 0.5}, {"measurement": "MBC", "setting": "[7]", "result": 7.8, "unit": "µg/mL"}, {"measurement": "DDA", "setting": "[8]", "result": 10.45, "unit": "mm"}, {"measurement": "DDA", "setting": "[9]", "result": 10.56, "unit": "mm"}, {"measurement": "DDA", "setting": "[10]", "result": 18.61, "unit": "mm"}, {"measurement": "DDA", "setting": "[11]", "result": 13.80, "unit": "mm"}, {"measurement": "DDA", "setting": "[12]", "result": 15.05, "unit": "mm"}, {"measurement": "DDA", "setting": "[13]", "result": 9.93, "unit": "mm"}, {"measurement": "DDA", "setting": "[14]", "result": 8.78, "unit": "mm"}, {"measurement": "DDA", "setting": "[15]", "result": 13.90, "unit": "mm"}, {"measurement": "DDA", "setting": "[16]", "result": 8.68, "unit": "mm"}, {"measurement": "DDA", "setting": "[17]", "result": 9.93, "unit": "mm"}, {"measurement": "DDA", "setting": "[18]", "result": 0.00, "unit": "mm"}, {"measurement": "DDA", "setting": "[19]", "result": 8.57, "unit": "mm"}, {"measurement": "DDA", "setting": "[20]", "result": 11.92, "unit": "mm"}, {"measurement": "DDA", "setting": "[21]", "result": 11.29, "unit": "mm"}, {"measurement": "DDA", "setting": "[22]", "result": 17.04, "unit": "mm"}, {"measurement": "DDA", "setting": "[23]", "result": 10.77, "unit": "mm"}, {"measurement": "DDA", "setting": "[24]", "result": 0.00, "unit": "mm"}, {"measurement": "DDA", "setting": "[25]", "result": 14.22, "unit": "mm"}, {"measurement": "DDA", "setting": "[26]", "result": 9.93, "unit": "mm"}, {"measurement": "DDA", "setting": "[27]", "result": 10.04, "unit": "mm"}, {"measurement": "DDA", "setting": "[28]", "result": 10.87, "unit": "mm"}, {"measurement": "DDA", "setting": "[29]", "result": 12.55, "unit": "mm"}, {"measurement": "DDA", "setting": "[30]", "result": 14.01, "unit": "mm"}, {"measurement": "DDA", "setting": "[31]", "result": 9.10, "unit": "mm"}, {"measurement": "SL (S)DDA", "setting": "[32]; salt and lipid (1% (v/v) Tween 80) supplements", "result": 0.0, "unit": "mm"}, {"measurement": "(S)DDA", "setting": "[32]; [34]", "result": "12.20 (±1.13) mm"}, {"measurement": "SS (S)DDA", "setting": "[33]; salt and serum supplements", "result": "43.68 (±1.02) mm"}, {"measurement": "(S)DDA", "setting": "[33]; [34]", "result": "40.42 (±0.89) mm"}]}]}
